Here are results for one compound from EP0193257A1, “Control of micro-organisms in water-containing compositions” (NIPA LABORATORIES, LTD., priority 1985, dated 1986).

Data set [1] deals with mixed culture of 6 species of Gram negative bacteria. The experiment in a line: Survivor plate count in commercial shampoo after challenge. In kind it is cell-based. The protocol: A sample of a commercial shampoo preparation (without preservative) was divided into three portions and, to a first portion of this shampoo, the following preservative system was added: • 0.3% (w/w) of a 30% w/w solution of DCHB in propylene glycol (resulting in a concentration of 0.09% of active DCHB).
To a further portion of the unpreserved shampoo, 0.3% (w/w) propylene glycol alone was added to ensure any observed bactericidal effect was due to DCHB.
20g portions of the unpreserved shampoo and the shampoo with the above additions were inoculated with 0.4 ml of a mixed culture of 6 species of Gram negative bacteria (including an isolate from a contaminated shampoo) to give an initial inoculum level of 2.14 x 10^7 colony forming units per g.
The inoculated samples were mixed by Vortex mixer and stored at room temperature. At regular timed intervals after challenge the total number of survivors in each sample portion were determined by serial dilution and plate counting (Nutrient Agar, 32°C) with the following results: […]

The test system of data set [2] is mixed culture of 7 strains of Gram negative bacteria. The experiment in a line: Survivor plate count in shampoo formulation after challenge. The following applies: shampoo with 0.20% of 30% DCHB in propylene glycol (0.06% active DCHB). The format is cell-based. On the procedure: A shampoo formulation was prepared to the following formula: […]
Various additions were made to portions of this shampoo in sterile bottles under aseptic conditions, as follows: • 1. 0.20% of 30% DCHB in propylene glycol (0.06% active DCHB) • 2. 0.20% of 30% DCHB in propylene glycol + 0.05% citric acid • 3. 0.05% citric acid (control 1) • 4. No addition (control 2)
Each of these systems was inoculated with a mixed culture of 7 strains of Gram negative bacteria, at an initial inocullum level of 9.0x10^7 colony forming units per g. At 30 mins, 1 hour, 2 hours, 6 hours, 24 hours and 7 days after inoculation the total number of survivors in each sample portion were determined by serial dilution and plate counting; with the following results: […]

A further data set can be described thus: Acute oral toxicity. To be noted: rat, in vivo, rats. From the text:
It is important that preservatives added to toiletry, household and pharmaceutical products have a low order of toxicity.

The nature of data set [3]: Storage stability in shampoos, aqueous solutions and creams. In kind it is physicochemical. The following applies: 0.3% (w/w) in shampoos, 25°C, in the light and in dark, seven months. On the procedure: Samples of shampoos, aqueous solutions and creams with and without addition of DCHB at 0.3% (w/w) have been stored at 25°C, in the light and in dark, for seven months and have been assessed for visual colour change and for DCHB content, by UV analysis, at regular intervals.

A short description of data set [4]: Antimicrobial activity in the presence of proteins. The following applies: proteins such as serum and soluble collagen.
Setting [5] is: commercial shampoo + 0.3% of 30% DCHB in propylene glycol (0.09% active DCHB).

As for `O=Cc1cc(Cl)c(O)c(Cl)c1` [DCHB, 3,5-Dichloro-4-hydroxybenzaldehyde], in data set [1] (setting [5]), the “Gram negative bacteria - Mixed Culture Colony forming units/g after: 1 day” value is less than 10 Colony forming units/g, the “Gram negative bacteria - Mixed Culture Colony forming units/g after: 7 days” value was less than 10 Colony forming units/g, the “Gram negative bacteria - Mixed Culture Colony forming units/g after: 14 days” value is recorded as less than 10 Colony forming units/g and the “Gram negative bacteria - Mixed Culture Colony forming units/g after: 28 days” value is less than 10 Colony forming units/g. Further, the “Gram negative bacteria - Mixed Culture Colony forming units/g after: 3 hours” value in data set [1] (commercial shampoo + 0.3% of 30% DCHB in propylene glycol (0.09% active DCHB), initial inoculum 2.14 x 10^7 colony forming units per g) is recorded as 9.0x10^6 Colony forming units/g. Further, the “bactericidal effect against normally resistant gram negative bacteria” value in data set [1] (shampoo containing 0.3 % of 30 % DCHB in propylene glycol) is “rapid and satisfactory bactericidal effect”. In addition, in data set [2], the “Mixed culture - colony forming units/g after: 1 hour” value is recorded as 3.0x10^6 colony forming units/g, the “Mixed culture - colony forming units/g after: 2 hours” value is on record as 6.6x10^5 colony forming units/g, the “Mixed culture - colony forming units/g after: 6 hours” value is given as 7.0x10^5 colony forming units/g and the “Mixed culture - colony forming units/g after: 24 hours” value is listed as 8.4x10^4 colony forming units/g. Besides, the “Mixed culture - colony forming units/g after: 7 days” value in data set [2] turned out to be 10 colony forming units/g. The “Mixed culture - colony forming units/g after: 30 mins” value in data set [2] (initial inoculum 9.0x10^7 colony forming units per g) is reported as 3.9x10^6 colony forming units/g. The compound also displayed an LD50 in “Acute oral toxicity” greater than 5000 mg/kg. Further, in data set [3], the “DCHB content, by UV analysis (UV absorption readings)” value is given as “no significant change” and the visual colour change entry is “no colour changes”. Moreover, the “antimicrobial activity in the presence of proteins” value in data set [4] is listed as “retaining antimicrobial activity”.

A word on the LD50: it is the dose at which mortality reaches 50%.
